The assay deals with Factor D (Homo sapiens, UniProt P00746). Kind of assay: Factor D esterolytic assay (Z-Lys-SBzl thioester substrate, DTNB, 405 nm). The assay is classed as biochemical. The conditions noted are these: substrate Z-Lys-SBzl 1.29 mM, 100 mM HEPES, 500 mM NaCl, pH 7.5, 10% DMSO, tested a minimum of three times. The method, boiled down: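 Run in pH 7.5 HEPES (100 mM) with 500 mM NaCl and 10% DMSO, with compound preincubated at room temperature or not before adding 1.29 mM Z-Lys-SBzl. Free thiol released by Factor D reacts with DTNB, and rate is followed at 405 nm minus 690 nm over 600 s. IC50 derives from rate-based inhibition, minimum three replicates.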
Sequence of Factor D (P00746 26-253): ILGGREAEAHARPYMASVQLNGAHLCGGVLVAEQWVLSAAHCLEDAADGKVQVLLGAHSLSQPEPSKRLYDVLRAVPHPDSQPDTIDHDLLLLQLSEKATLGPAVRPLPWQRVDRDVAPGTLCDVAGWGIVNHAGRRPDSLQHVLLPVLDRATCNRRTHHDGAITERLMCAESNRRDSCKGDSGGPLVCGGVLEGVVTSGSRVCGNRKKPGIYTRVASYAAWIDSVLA

Bounds are passed on as bounds.

A word on the IC50: it is the concentration that gives 50% inhibition. On to `C[C@@]12C[C@@H](C(=O)Nc3cncc(Br)n3)N(C(=O)Cn3c4ccc(C(F)(F)F)cc4c4c(N)ncnc43)[C@@H]1C2` [Compound 261d, (1R,3S,5R)-2-(2-(4-amino-6-(trifluoromethyl)-9H-pyrimido[4,5-b]indol-9-yl)acetyl)-N-(6-bromopyrazin-2-yl)-5-methyl-2-azabicyclo[3.1.0]hexane-3-carboxamide], for which the concentration for half-maximal inhibition (IC50) is under 100 nM.
Regarding `CN(C)c1ccc2c(c1)c1c(N)ncnc1n2CC(=O)N1[C@@H]2C[C@@H]2C[C@H]1C(=O)Nc1cccc(Br)n1` [Compound 262a, (1R,3S,5R)-2-(2-(4-amino-6-(dimethylamino)-9H-pyrimido[4,5-b]indol-9-yl)acetyl)-N-(6-bromopyridin-2-yl)-2-azabicyclo[3.1.0]hexane-3-carboxamide], the 50% inhibitory concentration (IC50) was under 100 nM.
For the compound `Cc1cc(-c2ccncc2)cc2c3c(N)ncnc3n(CC(=O)N3[C@@H]4C[C@@H]4C[C@H]3C(=O)Nc3cccc(Br)n3)c12` [Compound 263c, (1R,3S,5R)-2-(2-(4-amino-8-methyl-6-(pyridin-4-yl)-9H-pyrimido[4,5-b]indol-9-yl)acetyl)-N-(6-bromopyridin-2-yl)-2-azabicyclo[3.1.0]hexane-3-carboxamide], the IC50 was under 100 nM.
With `Cc1cc(-c2ccncc2)cc2c3c(N)ncnc3n(CC(=O)N3[C@H](C(=O)Nc4cccc(Br)n4)C[C@@]4(C)C[C@@H]34)c12` [Compound 264a, (1R,3S,5R)-2-(2-(4-amino-8-methyl-6-(pyridin-4-yl)-9H-pyrimido[4,5-b]indol-9-yl)acetyl)-N-(6-bromopyridin-2-yl)-5-methyl-2-azabicyclo[3.1.0]hexane-3-carboxamide] the figure was under 100 nM.
With `Cc1cc(O)cc2c3c(N)ncnc3n(CC(=O)N3[C@H](C(=O)Nc4cccc(Br)n4)C[C@@]4(C)C[C@@H]34)c12` [Compound 265a, (1R,3S,5R)-2-(2-(4-amino-6-hydroxy-8-methyl-9H-pyrimido[4,5-b]indol-9-yl)acetyl)-N-(6-bromopyridin-2-yl)-5-methyl-2-azabicyclo[3.1.0]hexane-3-carboxamide] the figure was under 100 nM; with `Nc1ncnc2c1c1cc(C(F)(F)F)ccc1n2CC(=O)N1[C@@H]2C[C@@H]2C[C@H]1C(=O)Nc1cccc(Br)c1` [Compound 266b, (1R,3S,5R)-2-(2-(4-amino-6-(trifluoromethyl)-9H-pyrimido[4,5-b]indol-9-yl)acetyl)-N-(3-bromophenyl)-2-azabicyclo[3.1.0]hexane-3-carboxamide], under 100 nM; with `Nc1ncnc2c1c1cc(C(F)(F)F)ccc1n2CC(=O)N1[C@@H]2C[C@@H]2C[C@H]1C(=O)Nc1cccc(Cl)n1` [Compound 267c, (1R,3S,5R)-2-(2-(4-amino-6-(trifluoromethyl)-9H-pyrimido[4,5-b]indol-9-yl)acetyl)-N-(6-chloropyridin-2-yl)-2-azabicyclo[3.1.0]hexane-3-carboxamide], under 100 nM.
As to `Nc1ncnc2c1c1cc(C(F)(F)F)ccc1n2CC(=O)N1[C@@H]2C[C@@H]2C[C@H]1C(=O)Nc1cccc(Br)c1F` [Compound 268b, (1R,3S,5R)-2-(2-(4-amino-6-(trifluoromethyl)-9H-pyrimido[4,5-b]indol-9-yl)acetyl)-N-(3-bromo-2-fluorophenyl)-2-azabicyclo[3.1.0]hexane-3-carboxamide], the half-maximal inhibitory concentration (IC50) is under 100 nM.
`C[C@@]12C[C@@H](C(=O)Nc3cccc(Cl)n3)N(C(=O)Cn3c4ccc(C(F)(F)F)cc4c4c(N)ncnc43)[C@@H]1C2` [Compound 269c, (1R,3S,5R)-2-(2-(4-amino-6-(trifluoromethyl)-9H-pyrimido[4,5-b]indol-9-yl)acetyl)-N-(6-chloropyridin-2-yl)-5-methyl-2-azabicyclo[3.1.0]hexane-3-carboxamide]: the half-inhibitory concentration (IC50) was under 100 nM.
Turning to `C[C@@]12C[C@@H](C(=O)Nc3cccc(Br)n3)N(C(=O)Cn3c4ccc(-c5ccccc5)cc4c4c(N)ncnc43)[C@@H]1C2` [Compound 270a, (1R,3S,5R)-2-(2-(4-amino-6-phenyl-9H-pyrimido[4,5-b]indol-9-yl)acetyl)-N-(6-bromopyridin-2-yl)-5-methyl-2-azabicyclo[3.1.0]hexane-3-carboxamide], the 50% inhibitory concentration (IC50) is under 100 nM.
For the compound `Cc1cccc(-c2ccc3c(c2)c2c(N)ncnc2n3CC(=O)N2[C@@H]3C[C@@H]3C[C@H]2C(=O)Nc2cccc(Br)n2)c1` [Compound 271c, (1R,3S,5R)-2-(2-(4-amino-6-(m-tolyl)-9H-pyrimido[4,5-b]indol-9-yl)acetyl)-N-(6-bromopyridin-2-yl)-2-azabicyclo[3.1.0]hexane-3-carboxamide], the IC50 was under 100 nM.
`Nc1ncnc2c1c1cc(C(F)(F)F)ccc1n2CC(=O)N1[C@@H]2C[C@@H]2C[C@H]1C(=O)Nc1ccccn1` [Compound 272c, (1R,3S,5R)-2-(2-(4-amino-6-(trifluoromethyl)-9H-pyrimido[4,5-b]indol-9-yl)acetyl)-N-(pyridin-2-yl)-2-azabicyclo[3.1.0]hexane-3-carboxamide]: the IC50 was 100 to 1000 nM.
For the compound `Nc1ncnc2c1c1cc(-c3cccnc3)ccc1n2CC(=O)N1[C@@H]2C[C@@H]2C[C@H]1C(=O)Nc1cccc(Br)n1` [Compound 273c, (1R,3S,5R)-2-(2-(4-amino-6-(pyridin-3-yl)-9H-pyrimido[4,5-b]indol-9-yl)acetyl)-N-(6-bromopyridin-2-yl)-2-azabicyclo[3.1.0]hexane-3-carboxamide], the half-maximal inhibitory concentration (IC50) is under 100 nM.
As to `Nc1ncnc2c1c1cc(OC(F)(F)F)ccc1n2CC(=O)N1[C@@H]2C[C@@H]2C[C@H]1C(=O)Nc1cccc(Br)n1` [Compound 274g, (1R,3S,5R)-2-(2-(4-amino-6-(trifluoromethoxy)-9H-pyrimido[4,5-b]indol-9-yl)acetyl)-N-(6-bromopyridin-2-yl)-2-azabicyclo[3.1.0]hexane-3-carboxamide], the 50% inhibitory concentration (IC50) was under 100 nM.
In the case of `Nc1ncnc2c1c1cc(-c3ccoc3)ccc1n2CC(=O)N1[C@@H]2C[C@@H]2C[C@H]1C(=O)Nc1cccc(Br)n1` [Compound 275c, (1R,3S,5R)-2-(2-(4-amino-6-(furan-3-yl)-9H-pyrimido[4,5-b]indol-9-yl)acetyl)-N-(6-bromopyridin-2-yl)-2-azabicyclo[3.1.0]hexane-3-carboxamide], the IC50 is under 100 nM.
The same measure for `COc1cc2c3c(N)ncnc3n(CC(=O)N3[C@@H]4C[C@@H]4C[C@H]3C(=O)Nc3cccc(Br)n3)c2cc1OC` [Compound 276g, (1R,3S,5R)-2-(2-(4-amino-6,7-dimethoxy-9H-pyrimido[4,5-b]indol-9-yl)acetyl)-N-(6-bromopyridin-2-yl)-2-azabicyclo[3.1.0]hexane-3-carboxamide]: under 100 nM; for `COc1cc2c3c(N)ncnc3n(CC(=O)N3[C@H](C(=O)Nc4cccc(Br)n4)C[C@@]4(C)C[C@@H]34)c2cc1OC` [Compound 277a, (1R,3S,5R)-2-(2-(4-amino-6,7-dimethoxy-9H-pyrimido[4,5-b]indol-9-yl)acetyl)-N-(6-bromopyridin-2-yl)-5-methyl-2-azabicyclo[3.1.0]hexane-3-carboxamide]: under 100 nM; for `COc1cc(OC)c2c(c1)c1c(N)ncnc1n2CC(=O)N1[C@@H]2C[C@@H]2C[C@H]1C(=O)Nc1cccc(Br)n1` [Compound 278g, (1R,3S,5R)-2-(2-(4-amino-6,8-dimethoxy-9H-pyrimido[4,5-b]indol-9-yl)acetyl)-N-(6-bromopyridin-2-yl)-2-azabicyclo[3.1.0]hexane-3-carboxamide]: under 100 nM.
The same measure for `COc1cc(OC)c2c(c1)c1c(N)ncnc1n2CC(=O)N1[C@H](C(=O)Nc2cccc(Br)n2)C[C@@]2(C)C[C@@H]12` [Compound 279a, (1R,3S,5R)-2-(2-(4-amino-6,8-dimethoxy-9H-pyrimido[4,5-b]indol-9-yl)acetyl)-N-(6-bromopyridin-2-yl)-5-methyl-2-azabicyclo[3.1.0]hexane-3-carboxamide]: under 100 nM; for `COc1cc(F)cc2c3c(N)ncnc3n(CC(=O)N3[C@@H]4C[C@@H]4C[C@H]3C(=O)Nc3cccc(Br)n3)c12` [Compound 280g, (1R,3S,5R)-2-(2-(4-amino-6-fluoro-8-methoxy-9H-pyrimido[4,5-b]indol-9-yl)acetyl)-N-(6-bromopyridin-2-yl)-2-azabicyclo[3.1.0]hexane-3-carboxamide]: under 100 nM; for `COc1cc(F)cc2c3c(N)ncnc3n(CC(=O)N3[C@H](C(=O)Nc4cccc(Br)n4)C[C@@]4(C)C[C@@H]34)c12` [Compound 281a, (1R,3S,5R)-2-(2-(4-amino-6-fluoro-8-methoxy-9H-pyrimido[4,5-b]indol-9-yl)acetyl)-N-(6-bromopyridin-2-yl)-5-methyl-2-azabicyclo[3.1.0]hexane-3-carboxamide]: under 100 nM.
In the case of `Cc1cc(O)cc2c3c(N)ncnc3n(CC(=O)N3[C@@H]4C[C@@H]4C[C@H]3C(=O)Nc3cccc(Br)n3)c12` [Compound 282a, (1R,3S,5R)-2-(2-(4-amino-6-hydroxy-8-methyl-9H-pyrimido[4,5-b]indol-9-yl)acetyl)-N-(6-bromopyridin-2-yl)-2-azabicyclo[3.1.0]hexane-3-carboxamide], the IC50 was under 100 nM.
With `Cc1ccnc2c3c(N)ncnc3n(CC(=O)N3[C@H](C(=O)Nc4cccc(Br)n4)C[C@@]4(C)C[C@@H]34)c12` [Compound 283g, (1R,3S,5R)-2-(2-(4-amino-8-methyl-9H-pyrido[2′,3′:4,5]pyrrolo[2,3-d]pyrimidin-9-yl)acetyl)-N-(6-bromopyridin-2-yl)-5-methyl-2-azabicyclo[3.1.0]hexane-3-carboxamide] the figure was under 100 nM; with `Cc1ccnc2c3c(N)ncnc3n(CC(=O)N3[C@@H]4C[C@@H]4C[C@H]3C(=O)Nc3cccc(Br)n3)c12` [Compound 284a, (1R,3S,5R)-2-(2-(4-amino-8-methyl-9H-pyrido[2′,3′:4,5]pyrrolo[2,3-d]pyrimidin-9-yl)acetyl)-N-(6-bromopyridin-2-yl)-2-azabicyclo[3.1.0]hexane-3-carboxamide], under 100 nM.

The values are drawn from patent US12679843B2, “Pyrrolopyrimidine amines as complement inhibitors” (BioCryst Pharmaceuticals, Inc., priority 2020, dated 2026).
